According to publication PMC11443518, “Undescribed Amaryllidaceae Alkaloids from Zephyranthes citrina and Their Cytotoxicity” (Journal of Natural Products, 2024):
Like-named read-outs stand apart in the source and are kept apart here.

Columns and labels:
hBChE = biological target: T1, hBChE (Homo sapiens, UniProt P06276); experiment: biochemical; type: biochemical; settings: recombinant BChE, Ellman, 37 °C
T1 construct: purchased University Hradec Kralove, Department of Chemistry, Faculty of Science
T1 sequence (P06276 29-602): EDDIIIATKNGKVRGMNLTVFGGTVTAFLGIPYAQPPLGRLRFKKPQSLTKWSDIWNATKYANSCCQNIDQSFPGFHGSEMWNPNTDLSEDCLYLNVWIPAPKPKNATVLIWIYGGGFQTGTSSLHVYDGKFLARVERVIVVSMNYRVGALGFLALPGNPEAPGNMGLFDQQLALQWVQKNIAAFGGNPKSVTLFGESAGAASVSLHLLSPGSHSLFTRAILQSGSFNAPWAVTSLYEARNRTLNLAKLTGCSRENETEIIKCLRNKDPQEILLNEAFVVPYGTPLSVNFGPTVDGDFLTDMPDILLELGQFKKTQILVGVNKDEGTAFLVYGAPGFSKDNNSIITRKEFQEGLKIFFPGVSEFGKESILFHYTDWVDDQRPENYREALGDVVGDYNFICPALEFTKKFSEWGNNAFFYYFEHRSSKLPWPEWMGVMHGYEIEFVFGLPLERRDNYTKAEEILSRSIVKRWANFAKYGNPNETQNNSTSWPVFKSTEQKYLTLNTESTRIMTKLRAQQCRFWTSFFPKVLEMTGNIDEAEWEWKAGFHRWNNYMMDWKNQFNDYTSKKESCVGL
Procedure: (§1) The hAChE and hBChE activities were determined using a modified method of Ellman, as described by Hrabinova and co-workers against recombinant AChE and recombinant BChE (purchased from University Hradec Kralove, Department of Chemistry, Faculty of Science).[43] Other used chemicals were phosphate buffer solution (PBS, pH = 7.4), 5,5′-dithio-bis(2-nitrobenzoic) acid (Ellman’s reagent, DTNB), acetylthiocholine iodide (ATChI), butyrylthiocholine iodide (BTChI), and dimethyl sulfoxide (DMSO) (all chemicals were purchased from Sigma-Aldrich, Prague, Czech Republic).
(§2) Briefly, 8.3 μL of the corresponding enzyme, 283 μL of 5 mM DTNB, and 8.3 μL of the sample dilution in DMSO in different concentrations were added to the microplate. These solutions were incubated for 5 min at 37 °C. Then, 33.3 μL of 10 mM substrate (ATChI or BTChI) was added to initiate the reaction, and the whole reaction mixture was incubated for 2 min at 37 °C. […] This difference after 1 min was used to calculate the percentage of inhibitory potential of the given derivative. Each measurement was repeated three times for every concentration of the compound. 8.3 μL DMSO was used as a blank. The % inhibition was calculated according to the following formula: [drawing 3] where ΔABl is the increase of absorbance of the blank sample and ΔASa is the increase of absorbance of the measured sample.

hAChE = biological target: T2, hAChE (Homo sapiens, UniProt P22303); experiment: biochemical; type: biochemical; settings: recombinant AChE, Ellman, 37 °C
T2 construct: purchased University Hradec Kralove, Department of Chemistry, Faculty of Science
T2 sequence (P22303 32-614): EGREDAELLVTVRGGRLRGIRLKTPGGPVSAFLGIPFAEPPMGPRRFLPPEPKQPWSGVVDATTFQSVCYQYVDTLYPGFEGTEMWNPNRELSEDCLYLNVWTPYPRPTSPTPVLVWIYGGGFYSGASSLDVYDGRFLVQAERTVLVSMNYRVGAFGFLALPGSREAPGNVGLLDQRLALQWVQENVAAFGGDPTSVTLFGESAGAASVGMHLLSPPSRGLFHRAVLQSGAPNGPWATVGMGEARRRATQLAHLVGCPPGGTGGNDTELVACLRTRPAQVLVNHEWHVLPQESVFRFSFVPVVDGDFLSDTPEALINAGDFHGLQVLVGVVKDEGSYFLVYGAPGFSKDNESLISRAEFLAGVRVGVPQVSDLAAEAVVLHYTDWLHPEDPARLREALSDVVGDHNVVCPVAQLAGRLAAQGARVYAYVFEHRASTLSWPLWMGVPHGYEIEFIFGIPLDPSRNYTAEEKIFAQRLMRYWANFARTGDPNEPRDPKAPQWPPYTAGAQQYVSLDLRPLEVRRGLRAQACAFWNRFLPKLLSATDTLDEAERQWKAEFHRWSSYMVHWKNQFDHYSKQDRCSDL
Procedure: as §1, §2

[1] = tested on: MCF-7 (breast adenocarcinoma); experiment: WST-1 cell proliferation assay, cytotoxicity screening; type: cell-based, human; settings: for activity at 10 µM: Homo sapiens, read-out: growth percent (GP) MCF-7
From the text: (§3) Selected human tumor and nontumor cell lines Jurkat (acute T-cell leukemia), MOLT-4 (acute lymphoblastic leukemia), A549 (lung carcinoma), HT-29 (colorectal adenocarcinoma), PANC-1 (pancreas epithelioid carcinoma), A2780 (ovarian carcinoma), HeLa (cervix adenocarcinoma), MCF-7 (breast adenocarcinoma), SAOS-2 (osteosarcoma) and MRC-5 (nontumor lung fibroblasts) were purchased from European Collection of Authenticated Cell Cultures (ECACC, Salisbury, UK) and cultured according to the provider’s culture method guidelines. […] The cells in low passage number (nontumor primary cell line MRC-5 was used for a maximum of 10 passages and cancer cell lines were used for a maximum of 20 passages) and in an exponential growth phase were used for this study.
(§4) Each cell line was seeded at a previously established optimal density (1 × 10^3 to 50 × 10^3 cells per well) in a 96-well plate (TPP, Trasadingen, Switzerland) and cells were allowed to settle overnight. During screening tests for cytotoxicity, cells were treated with alkaloids at a final concentration of 10 μM for 48 h. Doxorubicin (Sigma-Aldrich, St. Louis, USA), at a concentration of 1 μM, was used as a positive control. At the end of the culture period, the WST-1 proliferation assay (Roche, Basel, Switzerland) was performed according to the manufacturer’s protocol. The absorbance was determined using a Tecan Spark microplate reader (Tecan, Männedorf, Switzerland). Each value is the mean of three independent experiments and represents the percentage of the proliferation of control, nontreated cells (100%). The growth percent (GP) value as the mean of the proliferation decrease was calculated for each cell line and derivative tested.

[2] = tested on: MOLT-4 (acute lymphoblastic leukemia); experiment: as above; type: cell-based, human; settings: for activity at 10 µM: Homo sapiens, read-out: growth percent (GP) MOLT-4
From the text: as §3, §4

[3] = tested on: nine human tumor and one nontumor cell lines; experiment: Cytotoxicity screening across the whole panel of cell lines; type: cell-based; settings: Homo sapiens, read-out: GP value across the tested cell lines
From the text: Concerning the cytotoxicity of alkaloids isolated from Z. citrina, initially, Prakash and Vedanayaki investigated the MeOH extract of the bulbs for its in vitro cytotoxic activity using the MTT assay against three human cancer cell lines from different tissue origins: cervical cancer (HeLa), breast cancer (MCF-7), and oral squamous carcinoma (SCC-9). […] In this context, and to assess potential negative effects on human cell cultures, compounds 1, and 3–27 were screened in our study for cytotoxicity using a 10 μM single-dose regimen. The results were compared with those using the clinically approved antineoplastic agent doxorubicin at 1 μM. The effect on cell growth was investigated on nine human tumor and one nontumor cell lines, namely Jurkat (acute T-cell leukemia), MOLT-4 (acute lymphoblastic leukemia), A549 (lung carcinoma), HT-29 (colorectal adenocarcinoma), PANC-1 (pancreas epithelioid carcinoma), A2780 (ovarian carcinoma), HeLa (cervix adenocarcinoma), MCF-7 (breast adenocarcinoma), SAOS-2 (osteosarcoma) and MRC-5 (nontumor lung fibroblasts). […] No toxicity is valuable information, especially for compound 18, as it is a potent inhibitor of hAChE and hBChE.[27]
Selected human tumor and nontumor cell lines Jurkat (acute T-cell leukemia), MOLT-4 (acute lymphoblastic leukemia), A549 (lung carcinoma), HT-29 (colorectal adenocarcinoma), PANC-1 (pancreas epithelioid carcinoma), A2780 (ovarian carcinoma), HeLa (cervix adenocarcinoma), MCF-7 (breast adenocarcinoma), SAOS-2 (osteosarcoma) and MRC-5 (nontumor lung fibroblasts) were purchased from European Collection of Authenticated Cell Cultures (ECACC, Salisbury, UK) and cultured according to the provider’s culture method guidelines. All cell lines were maintained at 37 °C in a humidified 5% carbon dioxide and 95% air incubator. The cells in low passage number (nontumor primary cell line MRC-5 was used for a maximum of 10 passages and cancer cell lines were used for a maximum of 20 passages) and in an exponential growth phase were used for this study.
as §4

[4] = tested on: HeLa (cervix adenocarcinoma); experiment: WST-1 cell proliferation assay, cytotoxicity screening; type: cell-based; settings: Homo sapiens, 48 h, read-out: growth percent (GP) HeLa
From the text: as §3, §4

[5] = tested on: MRC-5 (nontumor lung fibroblasts); experiment: as above; type: cell-based; settings: Homo sapiens, read-out: growth percent (GP) MRC-5
From the text: as §3, §4

[6] = tested on: A2780 (ovarian carcinoma); experiment: as above; type: cell-based; settings: Homo sapiens, read-out: growth percent (GP) A2780
From the text: as §3, §4

[7] = tested on: PANC-1 (pancreas epithelioid carcinoma); experiment: as above; type: cell-based; settings: Homo sapiens, read-out: growth percent (GP) PANC-1
From the text: as §3, §4

[8] = tested on: HT-29 (colorectal adenocarcinoma); experiment: as above; type: cell-based; settings: Homo sapiens, read-out: growth percent (GP) HT-29
From the text: as §3, §4

A549 (lung carcinoma) = experiment: as above; type: cell-based; settings: Homo sapiens, read-out: growth percent (GP) A549
From the text: as §3, §4

SAOS-2 (osteosarcoma) = experiment: as above; type: cell-based; settings: Homo sapiens, read-out: growth percent (GP) SAOS-2
From the text: as §3, §4

[9] = tested on: Jurkat (acute T-cell leukemia); experiment: as above; type: cell-based; settings: Homo sapiens, 48 h, read-out: growth percent (GP) Jurkat
From the text: as §3, §4

[10] = c = 10 μM, 48 h, % of proliferation of nontreated control
[11] = c = 10 μM, % of proliferation of nontreated control

SMILES | activity at 10 µM ([1]; MCF7, 48 h) | activity at 10 µM ([2]; MOLT-4, 48 h) | activity at 10 µM ([3]; 48 h) | activity at 10 µM [4] | activity at 10 µM ([5]; MRC5, 48 h) | activity at 10 µM ([6]; A2780, 48 h) | activity at 10 µM ([7]; PANC-1, 48 h) | activity at 10 µM ([8]; HT-29, 48 h) | activity at 10 µM (A549 (lung carcinoma); A549, 48 h) | activity at 10 µM (SAOS-2 (osteosarcoma); SAOS-2, 48 h) | activity at 10 µM [9] | other results
COc1cc2c(cc1OC)[C@@H]1[C@H](O)[C@@H](OC)[C@H](O)C3=CCN(C2=O)[C@H]31 [Compound 2, 6-oxonarcissidine] |  |  |  |  |  |  |  |  |  |  |  | IC50 (hBChE): > 100 µM; IC50 (hAChE): > 100 µM
COC1C=C[C@@]23CCN(Cc4cc5c(cc42)OCO5)[C@@H]3C1 (stereo partly drawn) [Compound 17] | 49% | 32% | > 50% | 75% | 82% | 55% | 77% | 71% | 60% | 76% | 52% | growth percent (GP) MCF-7 [1, 10]: slight inhibition of growth; growth percent (GP) MOLT-4 [2, 10]: slight inhibition of growth
COc1cc2c(cc1O)[C@@H]1[C@H](O)[C@@H](OC)C=C3CCN(C2)[C@H]31 [Compound 25] |  |  |  |  |  |  |  |  |  |  |  | activity at 10 µM ([1]; MCF7, c = 10 μM, 48 h, % of proliferation of nontreated control): 102%; activity at 10 µM ([2]; MOLT-4, c = 10 μM, 48 h, % of proliferation of nontreated control): 88%; activity at 10 µM ([3]; 10 μM single dose, 48-h interval, all tested cell lines): > 50%; activity at 10 µM [4, 11]: 110%; activity at 10 µM ([5]; MRC5, c = 10 μM, 48 h, % of proliferation of nontreated control): 92%; activity at 10 µM ([6]; A2780, c = 10 μM, 48 h, % of proliferation of nontreated control): 125%; activity at 10 µM ([7]; PANC-1, c = 10 μM, 48 h, % of proliferation of nontreated control): 83%; activity at 10 µM ([8]; HT-29, c = 10 μM, 48 h, % of proliferation of nontreated control): 94%; activity at 10 µM (A549 (lung carcinoma); A549, c = 10 μM, 48 h, % of proliferation of nontreated control): 83%; activity at 10 µM (SAOS-2 (osteosarcoma); SAOS-2, c = 10 μM, 48 h, % of proliferation of nontreated control): 71%; activity at 10 µM [9, 11]: 91%
COc1cc2c(cc1OC)[C@@H]1[C@H](O)[C@@H](O)C=C3CCN(C2)[C@H]31 [Compound 24] | 104% | 103% | > 50% | 116% | 96% | 99% | 109% | 114% | 104% | 98% | 109% | 
COc1cc2c(cc1OC)[C@@]13CC[C@H](OC)C[C@@H]1N(CC3)C2O (stereo partly drawn) [Compound 9, zephyranine E] | 108% | 79% | > 50% | 106% | 100% | 111% | 98% | 95% | 95% | 77% | 96% | 
